In patent publication US7205295B2, “Benzoxazin-3-ones and derivatives thereof as therapeutic agents” (Warner-Lambert Company LLC, priority 2002, dated 2007) one finds IC50 data, which are given here for 33 molecules.

T1 sequence (P48736 whole entry, species assumed): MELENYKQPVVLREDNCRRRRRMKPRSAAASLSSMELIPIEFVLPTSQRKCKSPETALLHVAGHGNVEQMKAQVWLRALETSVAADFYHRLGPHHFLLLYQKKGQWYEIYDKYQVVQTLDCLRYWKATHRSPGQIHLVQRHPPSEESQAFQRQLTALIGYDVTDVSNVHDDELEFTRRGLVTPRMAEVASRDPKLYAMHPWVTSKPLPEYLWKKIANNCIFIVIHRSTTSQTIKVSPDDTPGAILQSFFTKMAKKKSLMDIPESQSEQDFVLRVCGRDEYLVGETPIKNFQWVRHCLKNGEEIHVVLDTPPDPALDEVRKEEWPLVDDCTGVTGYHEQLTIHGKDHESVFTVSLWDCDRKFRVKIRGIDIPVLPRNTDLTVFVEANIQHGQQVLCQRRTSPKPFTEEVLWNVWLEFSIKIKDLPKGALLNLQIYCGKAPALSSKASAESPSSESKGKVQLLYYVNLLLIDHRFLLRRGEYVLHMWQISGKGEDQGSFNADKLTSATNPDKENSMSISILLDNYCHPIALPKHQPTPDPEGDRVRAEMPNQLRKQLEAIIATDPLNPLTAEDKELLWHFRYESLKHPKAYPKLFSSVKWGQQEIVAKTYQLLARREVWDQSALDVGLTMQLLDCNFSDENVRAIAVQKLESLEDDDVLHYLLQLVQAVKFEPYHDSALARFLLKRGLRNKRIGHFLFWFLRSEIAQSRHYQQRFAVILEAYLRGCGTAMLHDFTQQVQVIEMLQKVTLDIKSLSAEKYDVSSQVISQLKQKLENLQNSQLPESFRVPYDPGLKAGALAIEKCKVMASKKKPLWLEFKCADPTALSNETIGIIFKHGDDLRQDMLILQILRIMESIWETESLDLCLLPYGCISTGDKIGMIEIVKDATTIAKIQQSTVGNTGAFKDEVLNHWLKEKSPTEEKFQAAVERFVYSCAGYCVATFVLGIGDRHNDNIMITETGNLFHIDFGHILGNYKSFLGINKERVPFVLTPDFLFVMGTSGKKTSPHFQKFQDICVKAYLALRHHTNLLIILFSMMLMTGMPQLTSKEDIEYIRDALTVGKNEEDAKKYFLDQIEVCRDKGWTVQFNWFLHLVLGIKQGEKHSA
T1 sequence (Q8WYR1 whole entry partner, species assumed): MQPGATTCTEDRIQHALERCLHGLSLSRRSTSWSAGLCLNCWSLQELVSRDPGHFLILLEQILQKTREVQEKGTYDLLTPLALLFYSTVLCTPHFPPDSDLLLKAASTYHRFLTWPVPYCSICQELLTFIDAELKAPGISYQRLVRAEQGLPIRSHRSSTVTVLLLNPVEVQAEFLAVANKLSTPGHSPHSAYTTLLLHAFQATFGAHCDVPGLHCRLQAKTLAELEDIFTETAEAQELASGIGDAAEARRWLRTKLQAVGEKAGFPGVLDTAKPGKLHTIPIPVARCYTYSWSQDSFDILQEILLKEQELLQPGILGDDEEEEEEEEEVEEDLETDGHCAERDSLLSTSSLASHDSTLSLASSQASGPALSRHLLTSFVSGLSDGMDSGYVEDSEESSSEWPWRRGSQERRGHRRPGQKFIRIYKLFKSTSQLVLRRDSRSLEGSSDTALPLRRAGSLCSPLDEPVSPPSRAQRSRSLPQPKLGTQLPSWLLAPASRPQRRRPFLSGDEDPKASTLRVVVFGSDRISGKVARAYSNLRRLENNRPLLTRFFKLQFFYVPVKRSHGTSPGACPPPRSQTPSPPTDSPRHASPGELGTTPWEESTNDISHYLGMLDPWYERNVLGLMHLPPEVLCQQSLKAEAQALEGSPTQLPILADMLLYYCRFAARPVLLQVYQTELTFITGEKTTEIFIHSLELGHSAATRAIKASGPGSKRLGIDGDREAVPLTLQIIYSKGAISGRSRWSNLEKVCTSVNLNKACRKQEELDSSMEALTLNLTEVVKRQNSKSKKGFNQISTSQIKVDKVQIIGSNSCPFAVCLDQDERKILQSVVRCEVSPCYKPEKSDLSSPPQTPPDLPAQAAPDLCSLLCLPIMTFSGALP

This test concerns the target T1, PI3Kγ (p101/p110γ protein) (Homo sapiens, UniProt P48736).
T1 construct: HA; made in house; host or cells: Spodoptera frugiperda (Sf9) cells, baculovirus co-infection
The experiment in a line: PI3Kγ In Vitro Kinase Assay. It is filed as biochemical. As to conditions: purified recombinant p101/p110γ with G protein β1/γ2 subunits; 20 μM ATP, 25 μM PIP2; 20 minutes at room temperature. The procedure, abridged:
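Reactions ran 20 min at room temperature, pairing lipid micelles (25 μM PIP2, 300 μM PE, 0.02% Na-cholate, 10 mM MgCl2) with 20 μM ATP including [γ-32P]ATP. The enzyme was recombinant p101/p110γ (2.7 nM) with G protein β1/γ2 (57.7 nM). [32P]PIP3 product was stopped with H3PO4, filtered and scintillation counted.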
A word on the IC50: it is the concentration that inhibits the measured activity by half. Turning to `O=C1NC(=O)C(=Cc2cc(F)c3c(c2)N(Cc2ccc(CN4CCCCC4)cc2)C(=O)CO3)S1` [Example 76, 5-[8-Fluoro-3-oxo-4-(4-piperidin-1-ylmethyl-benzyl)-3,4-dihydro-2H-1,4-benzoxazin-6-ylmethylene]-thiazolidine-2,4-dione], the IC50 amounted to 6 nM.
The figure for `CCCCN1CCN(Cc2ccc(CN3C(=O)COc4ccc(C=C5SC(=S)NC5=O)cc43)cc2)CC1` [Example 77, 4-[4-(4-Butyl-piperazin-1-ylmethyl)-benzyl]-6-(4-oxo-2-thioxo-thiazolidin-5-ylidenemethyl)-4H-1,4-benzoxazin-3-one] is 21 nM.
With `CCN(CC)Cc1ccc(CN2C(=O)COc3c(Cl)cc(C=C4SC(=S)NC4=O)cc32)cc1` [Example 78, 8-Chloro-4-(4-diethylaminomethyl-benzyl)-6-(4-oxo-2-thioxo-thiazolidin-5-ylidenemethyl)-4H-1,4-benzoxazin-3-one] the figure was 57 nM; with `O=C1NC(=S)SC1=Cc1cc(Cl)c2c(c1)N(Cc1ccc(CN3CCCCC3)cc1)C(=O)CO2` [Example 79, 8-Chloro-6-(4-oxo-2-thioxo-thiazolidin-5-ylidenemethyl)-4-(4-piperidin-1-ylmethyl-benzyl)-4H-1,4-benzoxazin-3-one; compound with Toluene-4-sulfonic acid], 20 nM.
With `O=C1NC(=S)SC1=Cc1cc(Cl)c2c(c1)N(Cc1ccc(CN3CCOCC3)cc1)C(=O)CO2` [Example 80, 8-Chloro-4-(4-morpholin-4-ylmethyl-benzyl)-6-(4-oxo-2-thioxo-thiazolidin-5-ylidenemethyl)-4H-1,4-benzoxazin-3-one] the figure was 17 nM; with `O=C1NC(=S)SC1=Cc1ccc2c(c1)N(Cc1ccccc1)C(=O)CS2` [Example 81, 4-Benzyl-6-(4-oxo-2-thioxo-thiazolidin-5-ylidenemethyl)-4H-1,4-benzothiazin-3-one], 29 nM; with `CC(C)(C)c1cc(CN2C(=O)CSc3ccc(C=C4SC(=S)NC4=O)cc32)cc(C(C)(C)C)c1` [Example 82, 4-(3,5-Di-tert-butyl-benzyl)-6-(4-oxo-2-thioxo-thiazolidin-5-ylidenemethyl)-4H-1,4-benzothiazin-3-one], 3740 nM.
Consider `O=C1CSc2ccc(C=C3SC(=S)NC3=O)cc2N1` [Example 83, 6-(4-Oxo-2-thioxo-thiazolidin-5-ylidenemethyl)-4H-1,4-benzothiazin-3-one], for which the IC50 was found to be 260 nM.
With `O=C1COc2ccc(C=C3OC(=S)NC3=O)cc2N1` [Example 84, 6-(4-Oxo-2-thioxo-oxazolidin-5-ylidenemethyl)-4H-benzo[1,4]oxazin-3-one] the figure was 60 nM.
With `CC(C)(C)c1cc(CN2C(=O)COc3ccc(C=C4SC(=O)NC4=O)cc32)cc(C(C)(C)C)c1` [Example 85, 5-[4-(3,5-Di-tert-butyl-benzyl)-3-oxo-3,4-dihydro-2H-1,4-benzoxazin-6-ylmethylene]-thiazolidine-2,4-dione] the figure was 21 nM; with `O=C1CC(=Cc2ccc3c(c2)NC(=O)CO3)C(=O)N1` [Example 86, 3-(3-Oxo-3,4-dihydro-2H-benzo[1,4]oxazin-6-ylmethylene)-pyrrolidine-2,5-dione], 12300 nM; with `O=C1COc2ccc(C=C3NC(=O)NC3=O)cc2N1` [Example 87, 5-(3-Oxo-3,4-dihydro-2H-benzo[1,4]oxazin-6-ylmethylene)-imidazolidine-2,4-dione], 16100 nM.
With `Cc1ccc(CN2C(=O)COc3ccc(C=C4SC(=S)NC4=O)cc32)c(C)c1` [Example 100, 4-(2,4-Dimethyl-benzyl)-6-(4-oxo-2-thioxo-thiazolidin-5-ylidenemethyl)-4H-1,4-benzoxazin-3-one] the figure was 5 nM.
Turning to `Cc1cccc(CCN2C(=O)COc3ccc(C=C4SC(=S)NC4=O)cc32)c1` [Example 101, 6-(4-Oxo-2-thioxo-thiazolidin-5-ylidenmethyl)-4-[2-m-tolyl-ethyl]-4H-benzo[1,4]oxazin-3-one], the IC50 was 5 nM.
The figure for `C[C@@H]1Oc2ccc(C=C3SC(=S)NC3=O)cc2N(CCc2ccc(Cl)c(Cl)c2)C1=O` [Example 109, (S)-4-[2-(3,4-Dichloro-phenyl)-ethyl]-2-methyl-6-(4-oxo-2-thioxo-thiazolidin-5-ylidenmethyl)-4H-benzo[1,4]oxazin-3-one] is 330 nM.
With `O=C1NC(=S)SC1=Cc1cc(Cl)c2c(c1)N(CCc1ccc(Cl)c(Cl)c1)C(=O)CO2` [Example 110, 8-Chloro-4-[2-(3,4-dichloro-phenyl)-ethyl]-6-(4-oxo-2-thioxo-thiazolidin-5-ylidenmethyl)-4H-benzo[1,4]oxazin-3-one] the figure was 55 nM; with `O=C1NC(=S)SC1=Cc1cc(F)c2c(c1)N(CCc1ccc(Cl)c(Cl)c1)C(=O)CO2` [Example 111, 4-[2-(3,4-dichloro-phenyl)-ethyl]-8-fluoro-6-(4-oxo-2-thioxo-thiazolidin-5-ylidenmethyl)-4H-benzo[1,4]oxazin-3-one], 14 nM.
The figure for `Cc1cc(C=C2SC(=S)NC2=O)cc2c1OCC(=O)N2CCc1ccc(Cl)c(Cl)c1` [Example 112, 4-[2-(3,4-dichloro-phenyl)-ethyl]-8-methyl-6-(4-oxo-2-thioxo-thiazolidin-5-ylidenmethyl)-4H-benzo[1,4]oxazin-3-one] is 22 nM; for `O=C1NC(=S)SC1=Cc1ccc2c(c1)N(CCc1cc(C(F)(F)F)cc(C(F)(F)F)c1)C(=O)CO2` [Example 113, 4-[2-(Bis-trifluromethyl-phenyl)-ethyl]-6-(4-oxo-2-thioxo-thiazolidin-5-ylidenmethyl)-4H-benzo[1,4]oxazin-3-one] it is 14 nM.
Turning to `Cc1cc(CN2C(=O)COc3ccc(C=C4SC(=S)NC4=O)cc32)cc(-c2ccoc2)c1` [Example 115, 4-(3-Furan-3-yl-5-methyl-benzyl)-6-(4-oxo-2-thioxo-thiazolidin-5-ylidenemethyl)-4H-benzo[1,4]oxazin-3-one], the IC50 stood at 15 nM.
The figure for `Cc1cc(CN2C(=O)COc3ccc(C=C4SC(=S)NC4=O)cc32)cc(-c2ccsc2)c1` [Example 116, 4-(3-Methyl-5-thiophene-3-yl-benzyl)-6-(4-oxo-2-thioxo-thiazolidin-5-ylidenemethyl)-4H-benzo[1,4]oxazin-3-one] is 24 nM; for `Cc1cc(CN2C(=O)COc3ccc(C=C4SC(=S)NC4=O)cc32)cc(-c2c(C)noc2C)c1` [Example 117, 4-[3-(3,5-Dimethyl-isoxazol-4-yl)-5-methyl-benzyl]-6-(4-oxo-2-thioxo-thiazolidin-5-ylidenemethyl)-4H-benzo[1,4]oxazin-3-one] it is 40 nM; for `COC(=O)c1cc(C)cc(CN2C(=O)COc3ccc(C=C4SC(=S)NC4=O)cc32)c1` [Example 118] it is 23 nM.
The figure for `Cc1cc(CN2C(=O)COc3ccc(C=C4SC(=S)NC4=O)cc32)cc(-c2nccs2)c1` [Example 119, 4-(3-Methyl-5-thiazol-2-yl-benzyl)-6-(4-oxo-2-thioxo-thiazolidin-5-ylidenemethyl)-4H-benzo[1,4]oxzain-3-one] is 19 nM; for `Cc1cc(C#N)cc(CN2C(=O)COc3ccc(C=C4SC(=S)NC4=O)cc32)c1` [Example 120] it is 30 nM; for `Cc1cc(CN2C(=O)COc3ccc(C=C4SC(=S)NC4=O)cc32)cc(-c2cnccn2)c1` [Example 121, 4-(3-Methyl-5-pyrazin-2-yl-benzyl)-6-(4-oxo-2-thioxo-thiazolidin-5-ylidenemethyl)-4H-benzo[1,4]oxazin-3-one] it is 67 nM.
The figure for `COc1ccc(CCCN2C(=O)COc3ccc(C=C4SC(=S)NC4=O)cc32)cc1` [Example 122, 4-[3-(4-Methoxy-phenyl)-propyl]-6-(4-oxo-2-thioxo-thiazolidin-5-ylidenemethyl)-4H-benzo[1,4]oxazin-3-one] is 5 nM; for `COc1ccc(CCCN2C(=O)COc3ccc(C=C4SC(=O)NC4=O)cc32)cc1` [Example 123, 5-{4-[3-(4-Methoxy-phenyl)-propyl]-3-oxo-3,4-dihydro-2H-benzo[1,4]oxazin-6-ylmethylene}-thiazolidine-2,4-dione] it is 7 nM; for `COc1cc(CCCN2C(=O)COc3ccc(C=C4SC(=S)NC4=O)cc32)cc(OC)c1OC` [Example 124, 6-(4-Oxo-2-thioxo-thiazolidin-5-ylidenemethyl)-4-[3-(3,4,5-trimethoxy-phenyl)-propyl]-4H-benzo[1,4]oxazin-3-one] it is 15 nM.
Take `CC(=O)Oc1c(C)cc(CN2C(=O)COc3ccc(C=C4SC(=S)NC4=O)cc32)cc1C` [Example 126, Acetic acid 2,6-dimethyl-4-{3-[3-oxo-6-(4-oxo-2-thioxo-thiazolidin-5-ylidenemethyl)-2,3-dihydro-benzo[1,4]oxazin-4-yl]-methyl}-phenyl ester]: the IC50 is 10 nM.
The figure for `O=C1NC(=S)SC1=Cc1ccc2c(c1)N(CCCc1cccc(Cl)c1Cl)C(=O)CO2` [Example 127, 4-[3-(2,3-Dichloro-phenyl)-propyl]-6-(4-oxo-2-thioxo-thiazolidin-5-ylidenemethyl)-4H-benzo[1,4]oxazin-3-one] is 43 nM.
With `Cn1nc(C(C)(C)C)cc1CN1C(=O)COc2ccc(C=C3SC(=S)NC3=O)cc21` [Example 128, 4-(5-tert-Butyl-2-methyl-2H-pyrazol-3-ylmethyl)-6-(4-oxo-2-thioxo-thiazolidin-5-ylidenemethyl)-4H-benzo[1,4]oxazin-3-one] the figure was 180 nM; with `COc1ccc(CCN2C(=O)COc3ccc(C=C4SC(=S)NC4=O)cc32)cc1` [Example 136, 4-[2-(4-Methoxy-phenyl)-ethyl]-6-(4-oxo-2-thioxo-thiazolidin-5-ylidenemethyl)-4H-1,4-benzoxazin-3-one], 7 nM.
